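Each compound was tested at five concentrations against cells in 96-well plates for 48 hours. Abbreviation: GI50, concentration required for 50% inhibition of growth. TGI marks complete inhibition of growth.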
How the values were obtained:
Test in all cases: DTP human tumour cell line panel, 48 h
[1] = system: DU-145 prostate
[2] = system: HCC-2998 colon
[3] = system: 786-0 renal
[4] = system: NCI-H522 lung
[5] = system: RXF 393 renal
[6] = system: IGROV1 ovarian
[7] = system: HCT-15 colon
[8] = system: CAKI-1 renal
[9] = system: SNB-75 CNS
[10] = system: UO-31 renal
[11] = system: M14 melanoma
[12] = system: ACHN renal
[13] = system: NCI-H460 lung
[14] = system: PC-3 prostate
[15] = system: SK-MEL-5 melanoma
[16] = system: NCI-H23 lung
[17] = system: SK-MEL-28 melanoma
[18] = system: A549 NSCLC
[19] = system: U251 CNS
[20] = system: HOP-62 NSCLC
[21] = system: OVCAR-8 ovarian
[22] = system: HOP-92 NSCLC
[23] = system: K-562 leukemia
[24] = system: TK-10 renal
[25] = system: SF-295 CNS
[26] = system: SR leukemia
[27] = system: MDA-MB-435
[28] = system: OVCAR-4 ovarian
[29] = system: UACC-257 melanoma
[30] = system: SF-268 CNS
[31] = system: KM12 colon
[32] = system: NCI-H226 lung
[33] = system: RPMI-8226 leukemia
[34] = system: SW-620 colon
[35] = system: SF-539 CNS
[36] = system: SN12C renal
[37] = system: OVCAR-5 ovarian
[38] = system: MCF7 breast
[39] = system: EKVX NSCLC
[40] = system: HCT-116 colon
[41] = system: UACC-62 melanoma
[42] = system: COLO 205 colon
[43] = system: LOX IMVI melanoma
[44] = system: MDA-MB-231 breast
[45] = system: SNB-19 CNS
[46] = system: T-47D breast
[47] = system: SK-OV-3 ovarian
[48] = system: SK-MEL-2 melanoma
[49] = system: HS 578T breast
[50] = system: NCI/ADR-RES ovarian
[51] = system: BT-549 breast
[52] = system: HL-60(TB) leukemia
[53] = system: MALME-3M melanoma
[54] = system: A498 renal
[55] = system: CCRF-CEM leukemia
[56] = system: OVCAR-3 ovarian
[57] = system: HT29 colon
[58] = system: MOLT-4 leukemia

Work on `COc1cc2cnc3c(c2c(OC)c1OC)Cc1cc2c(cc1-3)OCO2` yielded a GI50 [1] of over 36.1 µM, a TGI [1] of over 100 µM and a GI50 [2] of over 100 µM. It also gave a TGI [2] of over 100 µM, a GI50 [3] of 3.23 µM and a TGI [3] of over 82.5 µM. The GI50 [4] was 0.408 µM, the TGI [4] was 3.46 µM and the GI50 [5] was 10.9 µM. The TGI [5] was 47.9 µM, the GI50 [6] was 2.86 µM and the TGI [6] was over 100 µM. The GI50 [7] was 0.102 µM, the TGI [7] was over 32.3 µM and the GI50 [8] was 0.256 µM. It also gave a TGI [8] of 1.76 µM, a GI50 [9] of over 100 µM and a TGI [9] of over 100 µM. For the same compound, the GI50 [10] was 10.9 µM, the TGI [10] was over 100 µM and the GI50 [11] was 0.55 µM. For the same compound, the TGI [11] was over 55.1 µM, the GI50 [12] was 0.243 µM and the TGI [12] was over 29.1 µM. It also gave a GI50 [13] of 1.39 µM, a TGI [13] of over 100 µM and a GI50 [14] of 4.49 µM. It also gave a TGI [14] of over 100 µM, a GI50 [15] of 0.682 µM and a TGI [15] of 13.3 µM. It also gave a GI50 [16] of 2.3 µM, a TGI [16] of over 100 µM and a GI50 [17] of 42.6 µM. The TGI [17] was over 100 µM, the GI50 [18] was 2.64 µM and the TGI [18] was over 100 µM. The GI50 [19] was 0.31 µM, the TGI [19] was over 21.8 µM and the GI50 [20] was 0.234 µM. For the same compound, the TGI [20] was 10.9 µM, the TGI [21] was over 29.4 µM and the TGI [22] was over 28.5 µM. The GI50 [23] was 0.156 µM, the TGI [23] was over 87.9 µM and the GI50 [24] was 0.752 µM. For the same compound, the TGI [24] was 2.9 µM, the GI50 [25] was 0.591 µM and the TGI [25] was over 32.8 µM. For the same compound, the GI50 [26] was 0.0491 µM, the TGI [26] was 0.305 µM and the GI50 [27] was 0.207 µM. It also gave a TGI [27] of 0.446 µM, a GI50 [28] of over 100 µM and a TGI [28] of over 100 µM. It also gave a GI50 [29] of 0.99 µM, a TGI [29] of over 100 µM and a GI50 [30] of 2.74 µM. For the same compound, the TGI [30] was over 100 µM, the GI50 [31] was 0.255 µM and the TGI [31] was 0.874 µM. The GI50 [32] was 88.3 µM, the TGI [32] was over 100 µM and the GI50 [33] was 0.559 µM. The TGI [33] was over 100 µM, the GI50 [34] was 1.35 µM and the TGI [34] was over 100 µM. It also gave a GI50 [35] of 0.869 µM, a TGI [35] of 12 µM and a GI50 [36] of 0.602 µM. The TGI [36] was over 100 µM, the GI50 [37] was over 40.8 µM and the TGI [37] was over 100 µM. For the same compound, the GI50 [38] was 1.32 µM, the TGI [38] was over 24.8 µM and the GI50 [39] was 7.54 µM. The TGI [39] was over 100 µM, the GI50 [40] was 0.0694 µM and the TGI [40] was over 100 µM. For the same compound, the GI50 [41] was 0.204 µM, the TGI [41] was 11.2 µM and the GI50 [42] was 0.743 µM. It also gave a TGI [42] of over 100 µM, a GI50 [43] of 0.0789 µM and a TGI [43] of over 100 µM. For the same compound, the GI50 [44] was 0.71 µM, the TGI [44] was over 27.8 µM and the GI50 [45] was over 100 µM. The TGI [45] was over 100 µM, the GI50 [46] was over 100 µM and the TGI [46] was over 100 µM. It also gave a GI50 [47] of 69.3 µM, a TGI [47] of over 100 µM and a GI50 [48] of 1.41 µM. The TGI [48] was over 65.1 µM, the GI50 [49] was 2.38 µM and the TGI [49] was over 50.7 µM. For the same compound, the GI50 [50] was 10.8 µM and the TGI [50] was over 74.8 µM.
For `c1ccc(-c2nnc(CCCCCCCCc3nnc(-c4ccccc4)o3)o2)cc1`, the TGI [1] was over 100 µM, the TGI [2] was 91.6 µM and the TGI [3] was over 100 µM. For the same compound, the TGI [4] was 61 µM, the TGI [51] was over 100 µM and the TGI [6] was over 100 µM. It also gave a TGI [7] of over 100 µM, a TGI [8] of over 100 µM and a TGI [9] of over 100 µM. The TGI [10] was over 100 µM, the TGI [11] was over 100 µM and the TGI [12] was over 100 µM. It also gave a TGI [13] of over 100 µM, a TGI [14] of over 100 µM and a TGI [52] of over 100 µM. For the same compound, the TGI [15] was over 100 µM, the TGI [16] was over 100 µM and the TGI [17] was over 100 µM. The TGI [18] was over 100 µM, the TGI [19] was over 100 µM and the TGI [20] was over 100 µM. The TGI [21] was over 100 µM, the TGI [22] was over 100 µM and the TGI [23] was over 100 µM. The TGI [24] was over 100 µM, the TGI [25] was over 100 µM and the TGI [27] was over 100 µM. It also gave a TGI [53] of over 100 µM, a TGI [28] of over 100 µM and a TGI [29] of over 100 µM. The TGI [30] was over 100 µM, the TGI [31] was over 100 µM and the TGI [32] was over 100 µM. The TGI [34] was over 100 µM, the TGI [35] was over 100 µM and the TGI [36] was over 100 µM. The TGI [37] was over 100 µM, the TGI [54] was over 100 µM and the TGI [38] was over 100 µM. It also gave a TGI [55] of over 100 µM, a TGI [39] of over 100 µM and a TGI [40] of over 100 µM. For the same compound, the TGI [42] was over 100 µM, the TGI [56] was over 100 µM and the TGI [43] was over 100 µM. The TGI [44] was over 100 µM, the TGI [45] was over 100 µM and the TGI [47] was over 100 µM. It also gave a TGI [48] of over 100 µM, a TGI [50] of over 100 µM and a TGI [57] of over 100 µM. The TGI [58] was over 100 µM.

Source: PubChem BioAssay (NCI)
